The numbers were not newly measured in patent US20100196443A1, “USE OF CORDYCEPS SPECIES OR EXTRACT THEREOF IN THE EGG PRODUCTION” (A P NUTRIPHARM PTE. LTD., priority 2007, published 2010), which cites them from elsewhere.

The test system of the data set is RNA cell. The settings on record: Siev et al., 1969.

As to `Nc1ncnc2c1ncn2[C@@H]1O[C@H](CO)C[C@H]1O` [cordycepin, 3-deoxyadenosine], the “nucleolar RNA synthesis” value was “can inhibit nucleolar RNA synthesis”.
